Read-outs that look alike come from different tables or passages of the source. Starred links: 1 amine or outer side, 2 acyl side, 3 side chain; linkers in the order of their positions; H or OH if unused. Positions of bridges follow the written chain, without caps; N, C: chain ends. Non-standard residues stand in square brackets, D forms with d. Residues, ends and D or L forms follow the SMILES beside them. ξ: configuration not given here. X12 = O=C([C@H](Cc1cc(Cl)c(F)c(Cl)c1)N[*:1])[*:2]; Pro(4R-Bn) = O=C(O)[C@@H]1C[C@@H](Cc2ccccc2)CN1; Bta = N[C@@H](Cc1csc2ccccc12)C(=O)O; Hyp = O=C(O)[C@@H]1C[C@@H](O)CN1; NMeF = CN[C@@H](Cc1ccccc1)C(=O)O; NMeNle = CCCC[C@H](NC)C(=O)O; NMeM = CN[C@@H](CCSC)C(=O)O; NMeS = CN[C@@H](CO)C(=O)O; Pip = O=C(O)[C@@H]1CCCCN1; NMeA = CN[C@@H](C)C(=O)O; Dab = NCC[C@H](N)C(=O)O; Dap = NC[C@H](N)C(=O)O; ξC = NC(CS)C(=O)O; Sar = CNCC(=O)O
Experiments:
Human PD-L1/PD-1 = target: T1, Human PD-L1/PD-1 (Homo sapiens, UniProt Q9NZQ7); test: HTRF PD-1-Ig/PD-L1-His binding assay (human PD-L1)
T1 construct: made in house; host or cells: HEK293T
In short: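 Readout: time-resolved FRET between Eu cryptate-labeled anti-Ig (1 nM final) and APC-labeled anti-His (20 nM final) antibodies. These detect interaction of Fc-fused PD-1 with His-tagged human PD-L1 in dPBS containing 0.1% BSA and 0.05% Tween-20.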

[1] = target: T2, LK35.2-hPD-L1 cells / PE-labeled PD-1-Ig (Homo sapiens, UniProt Q9NZQ7); test: LK35.2-hPD-L1 cell binding high-content screening assay; format: cell-based
T2 construct: expressed in transfected cells; host or cells: LK35.2 mouse B cell line
In short: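 Binding of PE-conjugated human PD-1-Ig (1 nM final) to human PD-L1 stably expressed on a mouse B-cell line (LK35.2) was measured by high-content imaging after washes. Compound and labeled PD-1-Ig were co-incubated 1 h at 37 °C with cells in RPMI/10% FCS.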

[2] = cluster symbol, read-out: HTRF IC50 cluster
[3] = cluster symbol, cell line of CBA not given (LK35.2-hPD-L1 or 293T-hPD-L1), read-out: CBA IC50 cluster
[4] = cell binding assay, cell line not given, cluster symbol, read-out: CBA IC50 cluster

T2 sequence (Q9NZQ7 19-290): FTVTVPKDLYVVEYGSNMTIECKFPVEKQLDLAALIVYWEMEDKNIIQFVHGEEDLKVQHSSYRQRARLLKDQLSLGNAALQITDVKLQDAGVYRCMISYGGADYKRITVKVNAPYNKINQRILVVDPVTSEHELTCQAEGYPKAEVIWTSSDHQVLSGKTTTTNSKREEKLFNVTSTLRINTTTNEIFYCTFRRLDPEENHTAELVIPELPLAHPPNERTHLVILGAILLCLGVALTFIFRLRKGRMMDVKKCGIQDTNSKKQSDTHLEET
T1 sequence (Q9NZQ7 with tags, fused parts or gaps): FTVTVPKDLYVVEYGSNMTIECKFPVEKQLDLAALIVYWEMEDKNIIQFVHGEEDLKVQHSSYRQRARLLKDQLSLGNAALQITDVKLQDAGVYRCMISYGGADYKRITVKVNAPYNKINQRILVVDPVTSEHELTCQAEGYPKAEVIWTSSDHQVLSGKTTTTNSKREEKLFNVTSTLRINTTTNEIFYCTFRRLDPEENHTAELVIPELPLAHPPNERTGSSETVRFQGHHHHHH

SMILES	IC50 (Human PD-L1/PD-1; [2])	IC50 [1, 3]	IC50 [1, 4]	IC50 (Human PD-L1/PD-1; read-out: HTRF IC50 value)	IC50 ([1]; cell line of CBA not given (LK35.2-hPD-L1 or 293T-hPD-L1), read-out: CBA IC50 value)
CC(C)C[C@@H]1NC(=O)[C@H](Cc2ccc(O)cc2)NC(=O)[C@H](Cc2c[nH]c3ccccc23)NC(=O)CN(C)C(=O)[C@H](Cc2ccc(O)cc2)NC(=O)[C@H](Cc2ccccc2)N(C)C(=O)[C@H](C(C)C)NC(=O)[C@H](CC(=O)O)NC(=O)CN(C)C(=O)[C@H](Cc2ccc(O)cc2)N(C)C(=O)[C@H](Cc2ccccc2)N(C)C(=O)[C@H](Cc2ccccc2)NC(=O)CSC[C@@H](C(=O)NCC(N)=O)NC1=O [Example 3060-B] (HELM PEPTIDE1{[O=C(C[*:3])[*:2]].F.[meF].[meY].[Sar].D.V.[meF].Y.[Sar].W.Y.L.C.G.[am]}$PEPTIDE1,PEPTIDE1,1:R3-14:R3$$$V2.0)	> 30.5 nM	> 74.3 nM	–	–	–
CCCC[C@H]1C(=O)N(C)[C@@H](CCCC)C(=O)N[C@@H](CCC(=O)O)C(=O)N[C@H](C(=O)NCC(N)=O)CSCC(=O)N[C@@H](Cc2ccc(O)cc2)C(=O)N(C)[C@@H](C)C(=O)N[C@@H](CC(=O)O)C(=O)N2CCC[C@H]2C(=O)N[C@@H](Cc2c[nH]cn2)C(=O)N[C@@H](CCCCN)C(=O)N2C[C@H](Cc3ccccc3)C[C@H]2C(=O)N[C@@H](Cc2c[nH]c3ccccc23)C(=O)N[C@@H](CCCCN)C(=O)N[C@@H](Cc2c[nH]c3ccccc23)C(=O)N1C [Example 13010] ({CH2CO}-Y[NMeA]DPHK[Pro(4R-Bn)]WKW[NMeNle][NMeNle]ECG-NH2; thioether N-14)	0.385 to 6.74 nM	–	0.158 to 4.71 nM	–	–
CCCC[C@H]1C(=O)N(C)CC(=O)N[C@@H](Cc2ccc(O)cc2)C(=O)N[C@@H](C(C)C)C(=O)N(C)[C@@H](Cc2ccccc2)C(=O)N[C@@H](Cc2ccc(O)cc2)C(=O)N(C)CC(=O)N[C@@H](Cc2c[nH]c3ccccc23)C(=O)N[C@@H](Cc2ccc(O)cc2)C(=O)N[C@@H](CC(C)C)C(=O)N[C@H](C(=O)NCC(N)=O)CSCC(=O)N[C@@H](Cc2ccccc2)C(=O)N(C)[C@@H](Cc2ccccc2)C(=O)N1C [Example 3154] (HELM PEPTIDE1{[O=C(C[*:3])[*:2]].F.[meF].[CCCC[C@@H](C(=O)[*:2])N(C)[*:1]].[Sar].Y.V.[meF].Y.[Sar].W.Y.L.C.G.[am]}$PEPTIDE1,PEPTIDE1,1:R3-14:R3$$$V2.0)	–	–	–	230 nM	18.4 nM
CCCC[C@H]1C(=O)N[C@@H](C)C(=O)NC(C(=O)NCC(N)=O)CSCC(=O)N[C@@H](Cc2ccc(O)cc2)C(=O)N(C)[C@@H](C)C(=O)N[C@@H](CC(N)=O)C(=O)N2CCC[C@H]2C(=O)N[C@@H](CN)C(=O)N[C@@H](CC(C)C)C(=O)N2CCC[C@H]2C(=O)N[C@@H](Cc2c[nH]c3ccccc23)C(=O)N[C@@H](CO)C(=O)N[C@@H](Cc2csc3ccccc23)C(=O)N(C)[C@@H](CCSC)C(=O)N1C (stereo partly shown) [Example 9094] ({CH2CO}-Y[NMeA]NP[Dap]LPWS[Bta][NMeM][NMeNle]A[ξC]G-NH2; thioether N-14)	0.385 to 6.74 nM	–	4.78 to 72.9 nM	–	–
CCCC[C@H]1C(=O)N(C)CC(=O)N[C@@H](CC(=O)O)C(=O)N[C@@H](C(C)C)C(=O)N(C)[C@@H](Cc2ccccc2)C(=O)N[C@@H](Cc2ccc(O)cc2)C(=O)N(C)CC(=O)N[C@@H](Cc2c[nH]c3ccccc23)C(=O)N[C@@H](Cc2ccc(O)cc2)C(=O)N[C@@H](CC(C)C)C(=O)N[C@H](C(=O)NCC(N)=O)CSCC(=O)N[C@@H](Cc2cc(Cl)c(F)c(Cl)c2)C(=O)N(C)[C@@H](Cc2ccccc2)C(=O)N1C [Example 3185] ({CH2CO}-[X12][NMeF][NMeNle][Sar]DV[NMeF]Y[Sar]WYLCG-NH2; thioether N-13)	6.76 to 30.3 nM	4.78 to 72.9 nM	–	–	–
CCCC[C@H]1C(=O)N(C)[C@@H](CCCC)C(=O)N[C@@H](CCCNC(=N)N)C(=O)N[C@H](C(=O)NCC(N)=O)CSCC(=O)N[C@@H](Cc2ccccc2)C(=O)N(C)[C@@H](C)C(=O)N[C@@H](CC(N)=O)C(=O)N2CCC[C@H]2C(=O)N[C@@H](Cc2cnc[nH]2)C(=O)N[C@@H](CC(C)C)C(=O)N(C)CC(=O)N[C@@H](Cc2c[nH]c3ccccc23)C(=O)N(C)[C@@H](CO)C(=O)N[C@@H](Cc2c[nH]c3ccccc23)C(=O)N1C [Example 1078] ({CH2CO}-F[NMeA]NPHL[Sar]W[NMeS]W[NMeNle][NMeNle]RCG-NH2; thioether N-14)	> 30.5 nM	> 74.3 nM	–	–	–
CCCC[C@H]1C(=O)N(C)[C@@H](CCCC)C(=O)N[C@@H](CCCNC(=N)N)C(=O)N[C@H](C(=O)NCC(N)=O)CSCC(=O)N[C@@H](Cc2ccccc2)C(=O)N(C)[C@@H](C)C(=O)N[C@@H](CC(N)=O)C(=O)N2CCC[C@H]2C(=O)N[C@@H](Cc2c[nH]cn2)C(=O)N[C@@H](CC(C)C)C(=O)N(C)CC(=O)N[C@@H](Cc2c[nH]c3ccccc23)C(=O)N[C@@H](CO)C(=O)N[C@@H](Cc2c[nH]cn2)C(=O)N1C [Example 1004] ({CH2CO}-F[NMeA]NPHL[Sar]WSH[NMeNle][NMeNle]RCG-NH2; thioether N-14)	> 30.5 nM	> 74.3 nM	–	–	–

The remaining lines, values ahead:

IC50 (Human PD-L1/PD-1; [2])	IC50 [1, 3]	IC50 [1, 4]	IC50 (Human PD-L1/PD-1; read-out: HTRF IC50 value)	IC50 ([1]; cell line of CBA not given (LK35.2-hPD-L1 or 293T-hPD-L1), read-out: CBA IC50 value)	SMILES
0.385 to 6.74 nM	–	0.158 to 4.71 nM	–	–	CCCC[C@H]1C(=O)N(C)[C@@H](CCCC)C(=O)N[C@@H](CC(C)C)C(=O)N[C@H](C(=O)NCC(N)=O)CSCC(=O)N[C@@H](Cc2ccc(O)cc2)C(=O)N(C)[C@@H](C)C(=O)N[C@@H](CC(=O)O)C(=O)N2CCC[C@H]2C(=O)N[C@@H](Cc2c[nH]cn2)C(=O)N[C@@H](CCCCN)C(=O)N2C[C@H](O)C[C@H]2C(=O)N[C@@H](Cc2c[nH]c3ccccc23)C(=O)N[C@@H](CCCCN)C(=O)N[C@@H](Cc2c[nH]c3ccccc23)C(=O)N1C [Example 5095] ({CH2CO}-Y[NMeA]DPHK[Hyp]WKW[NMeNle][NMeNle]LCG-NH2; thioether N-14)
6.76 to 30.3 nM	0.158 to 4.71 nM	–	–	–	CCCC[C@H]1C(=O)N(C)[C@@H](CCCC)C(=O)N[C@@H](CCCNC(=N)N)C(=O)N[C@H](C(=O)NCC(N)=O)CSCC(=O)N[C@@H](Cc2ccc(O)cc2)C(=O)N(C)[C@@H](C)C(=O)N[C@@H](CC(N)=O)C(=O)N2CCC[C@H]2C(=O)N[C@@H](Cc2cnc[nH]2)C(=O)N[C@@H](CC(C)C)C(=O)N2C[C@H](O)C[C@H]2C(=O)N[C@@H](Cc2c[nH]c3ccccc23)C(=O)N[C@@H](CCN)C(=O)N[C@@H](Cc2c[nH]c3ccccc23)C(=O)N1C [Example 1134] ({CH2CO}-Y[NMeA]NPHL[Hyp]W[Dab]W[NMeNle][NMeNle]RCG-NH2; thioether N-14)
0.385 to 6.74 nM	–	0.158 to 4.71 nM	–	–	CCCC[C@H]1C(=O)N(C)[C@@H](CCCC)C(=O)N[C@@H](CCCNC(=N)N)C(=O)NC(C(=O)NCC(N)=O)CSCC(=O)N[C@@H](Cc2ccc(O)cc2)C(=O)N(C)[C@@H](C)C(=O)N[C@@H](CC(N)=O)C(=O)N2CCC[C@H]2C(=O)N[C@@H](Cc2cnc[nH]2)C(=O)N[C@@H](CC(N)=O)C(=O)N2C[C@H](O)C[C@H]2C(=O)N[C@@H](Cc2c[nH]c3ccccc23)C(=O)N[C@@H](CO)C(=O)N[C@@H](Cc2c[nH]c3ccccc23)C(=O)N1C (stereo partly shown) [Example 9065] ({CH2CO}-Y[NMeA]NPHN[Hyp]WSW[NMeNle][NMeNle]R[ξC]G-NH2; thioether N-14)
6.76 to 30.3 nM	0.158 to 4.71 nM	–	–	–	CCCC[C@H]1C(=O)N(C)[C@@H](CCCC)C(=O)N[C@@H](CCCNC(=N)N)C(=O)N[C@H](C(=O)NCC(N)=O)CSCC(=O)N[C@@H](Cc2ccc(O)cc2)C(=O)N2CCCC[C@H]2C(=O)N[C@@H](CC(N)=O)C(=O)N2CCC[C@H]2C(=O)N[C@@H](CN)C(=O)N[C@@H](CC(C)C)C(=O)N2C[C@H](O)C[C@H]2C(=O)N[C@@H](Cc2c[nH]c3ccccc23)C(=O)N[C@@H](CO)C(=O)N[C@@H](Cc2c[nH]c3ccccc23)C(=O)N1C [Example 1236] ({CH2CO}-Y[Pip]NP[Dap]L[Hyp]WSW[NMeNle][NMeNle]RCG-NH2; thioether N-14)
> 30.5 nM	–	> 74.3 nM	–	–	CCCC[C@H]1C(=O)N(C)[C@@H](CCCC)C(=O)N[C@@H](CCCNC(=N)N)C(=O)NC(C(=O)NCC(N)=O)CSCC(=O)N[C@@H](Cc2ccc(O)cc2)C(=O)N(C)[C@@H](C)C(=O)N[C@@H](CC(N)=O)C(=O)N2CCC[C@H]2C(=O)N[C@@H](Cc2c[nH]cn2)C(=O)NCC(=O)N[C@@H](CC(C)C)C(=O)N2CCC[C@H]2C(=O)N[C@@H](Cc2c[nH]c3ccccc23)C(=O)N[C@@H](CO)C(=O)N[C@@H](Cc2c[nH]c3ccccc23)C(=O)N1C (stereo partly shown) [Example 10516] ({CH2CO}-Y[NMeA]NPHGLPWSW[NMeNle][NMeNle]R[ξC]G-NH2; thioether N-15)
6.76 to 30.3 nM	–	4.78 to 72.9 nM	–	–	CCCC[C@H]1C(=O)N(C)[C@@H](CCCC)C(=O)N[C@@H](CC(C)C)C(=O)N[C@H](C(=O)NCC(N)=O)CSCC(=O)N[C@@H](Cc2ccc(O)cc2)C(=O)N(C)[C@@H](C)C(=O)N[C@@H](CCN)C(=O)N2CCC[C@H]2C(=O)N[C@@H](Cc2c[nH]cn2)C(=O)N[C@@H](CCC(=O)O)C(=O)N2C[C@H](O)C[C@H]2C(=O)N[C@@H](Cc2c[nH]c3ccccc23)C(=O)N[C@@H](C(C)C)C(=O)N[C@@H](Cc2c[nH]c3ccccc23)C(=O)N1C [Example 5107] ({CH2CO}-Y[NMeA][Dab]PHE[Hyp]WVW[NMeNle][NMeNle]LCG-NH2; thioether N-14)
6.76 to 30.3 nM	–	0.158 to 4.71 nM	–	–	CCCC[C@H]1C(=O)N(C)[C@@H](CCCC)C(=O)N[C@@H](CCCNC(=N)N)C(=O)N[C@H](C(=O)NCC(N)=O)CSCC(=O)N[C@@H](Cc2ccc(O)cc2)C(=O)N(C)[C@@H](C)C(=O)N[C@@H](CCN)C(=O)N2CCC[C@H]2C(=O)N[C@@H](CO)C(=O)N[C@@H](CCC(=O)O)C(=O)N2C[C@H](O)C[C@H]2C(=O)N[C@@H](Cc2c[nH]c3ccccc23)C(=O)N[C@@H](CO)C(=O)N[C@@H](Cc2c[nH]c3ccccc23)C(=O)N1C [Example 5130] ({CH2CO}-Y[NMeA][Dab]PSE[Hyp]WSW[NMeNle][NMeNle]RCG-NH2; thioether N-14)
